We go through one sequence from US20200326333A1, “DIAGNOSIS AND TREATMENT OF AUTOIMMUNE DISEASES” (OP-T LLC, priority 2019, published 2020).

Assay [1] relates to integrins from CD4hi cells (CD4+CD40−). In words: KGYY15 immunoprecipitation with western blot, CD4hi cells. It counts as binding, mouse. Particulars: αL more prominently from autoimmune NOD and αD from control Balb/c cells. An excerpt:
(§1) FIG. 10A, FIG. 10B, FIG. 10C-1, FIG. 10C-2, FIG. 10D, FIG. 10E, FIG. 10F, FIG. 10G, FIG. 10H-1, FIG. 10H-2, FIG. 10I, FIG. 10J-1, FIG. 10J-2, and FIG. 10J-3 provide blots, tables, graphs, charts, and plots related to additional biomarkers, receptors, and peptides that may bind thereto. The blots of FIG. 10A, FIG. 10B, FIGS. 10C-1, 10C-2 and FIG. 10D provide immunoprecipitation results of western blots. […] FIG. 10E provides a table of when KGYY15 eluates from mouse PBMR, MHCII+, CD4hi or CD4lo cells in protein sequencing, for integrins and proteins listed in FIG. 10E. FIG. 10F provides results of a western blot when 3 different CD40 antibodies were used in immunoprecipitations on cells that had been incubated with mKGYY15-biotin prior to lysis. FIG. 10H-1 and FIG. 10H-2, FIG. 10I, and FIG. 10J-1, FIG. 10J-2, and FIG. 10J-3 provide additional binding tests and studies that were done regarding peptides of KGYY-4, KGYY-6, and KGYY6-Val.

Assay [2] deals with integrins from CD4lo cells (CD4loCD40+; Th40). In words: KGYY15 immunoprecipitation with western blot, CD4lo cells. It counts as binding, mouse.
Description: as §1

On to “VLQWAKKGYYTMKSN [KGYY15, 15-mer CD154-derived peptide around the KGYY core]”, for which the “integrins immunoprecipitated from CD4hi cells” value in assay [1] is “immunoprecipitated primarily αL, αD and β2”. Besides, in assay [2] (cell population not stated), the β3 immunoprecipitation result was “not β3”. Besides, in assay [2] (more prominently from autoimmune NOD cells than from control Balb/c cells), the “integrins immunoprecipitated from CD4lo cells” value was “immunoprecipitated primarily αM, αD and β2”. In assay [2] (several differentially glycosylated (presumably) bands), the CD11a immunoprecipitation result was “immunoprecipitated but only from NOD CD4lo cells”.
